Reference: US8658791B2, “2-substituted-6-amino-5-alkyl, alkenyl or alkynyl-4-pyrimidinecarboxylic acids and 6-substituted-4-amino-3-alkyl, alkenyl or alkynyl picolinic acids and their use as herbicides” (Dow AgroSciences, LLC, priority 2007, dated 2014)

Tests used:
Type in all cases: in vivo
[1] = test system: barnyardgrass (Echinochloa crus-galli); experiment: General postemergence herbicidal activity, ECHCG; conditions: Echinochloa crus-galli, post-emergence, 336 h, postemergence spray, visual score after 14 days, 0 = no injury, 100 = complete kill, read-out: Post-emergent Weed Control ECHCG; for pest or weed control at 280 g/ha: 280 g ai/ha; for pest or weed control at 140 g/ha: 140 g ai/ha
Description: (§1) Seeds or nutlets of the desired test plant species were planted in Sun Gro MetroMix® 306 planting mixture, which typically has a pH of 6.0 to 6.8 and an organic matter content of about 30 percent, in plastic pots with a surface area of 103 square centimeters. When required to ensure good germination and healthy plants, a fungicide treatment and/or other chemical or physical treatment was applied. The plants were grown for 7-21 days in a greenhouse with an approximate 15 hour photoperiod which was maintained at about 23-29° C. during the day and 22-28° C. during the night. Nutrients and water were added on a regular basis and supplemental lighting was provided with overhead metal halide 1000-Watt lamps as necessary. The plants were employed for testing when they reached the first or second true leaf stage.
(§2) A weighed amount, determined by the highest rate to be tested, of each test compound was placed in a 25 mL glass vial and was dissolved in 4 mL of a 97:3 v/v (volume/volume) mixture of acetone and dimethyl sulfoxide (DMSO) to obtain concentrated stock solutions. […] The concentrated stock solutions obtained were diluted with 20 mL of an aqueous mixture containing acetone, water, isopropyl alcohol, DMSO, Atplus 411F crop oil concentrate, and Triton® X-155 surfactant in a 48.5:39:10:1.5:1.0:0.02 v/v ratio to obtain spray solutions containing the highest application rates. Additional application rates were obtained by serial dilution of 12 mL of the high rate solution into a solution containing 2 mL of 97:3 v/v (volume/volume) mixture of acetone and dimethyl sulfoxide (DMSO) and 10 mL of an aqueous mixture containing acetone, water, isopropyl alcohol, DMSO, Atplus 411F crop oil concentrate, and Triton X-155 surfactant in a 48.5:39:10:1.5:1.0:0.02 v/v ratio to obtain 1/2X, 1/4X, 1/8X and 1/16X rates of the high rate. Compound requirements are based upon a 12 mL application volume at a rate of 187 L/ha. Formulated compounds were applied to the plant material with an overhead Mandel track sprayer equipped with a 8002E nozzles calibrated to deliver 187 L/ha over an application area of 0.503 square meters at a spray height of 18 inches (43 cm) above the average plant canopy height. Control plants were sprayed in the same manner with the solvent blank.
(§3) The treated plants and control plants were placed in a greenhouse as described above and watered by sub-irrigation to prevent wash-off of the test compounds. After 14 days, the condition of the test plants as compared with that of the untreated plants was determined visually and scored on a scale of 0 to 100 percent where 0 corresponds to no injury and 100 corresponds to complete kill.

[2] = test system: velvetleaf (Abutilon theophrasti); experiment: General postemergence herbicidal activity, ABUTH; conditions: Abutilon theophrasti, post-emergence, 336 h, postemergence spray, visual score after 14 days, 0 = no injury, 100 = complete kill, read-out: Post-emergent Weed Control ABUTH; for pest or weed control at 280 g/ha: 280 g ai/ha; for pest or weed control at 140 g/ha: 140 g ai/ha
Description: as §1, §2, §3

[3] = test system: lambsquarter (Chenopodium album); experiment: General postemergence herbicidal activity, CHEAL; conditions: Chenopodium album, post-emergence, 336 h, postemergence spray, visual score after 14 days, 0 = no injury, 100 = complete kill, read-out: Post-emergent Weed Control CHEAL; for pest or weed control at 280 g/ha: 280 g ai/ha; for pest or weed control at 140 g/ha: 140 g ai/ha
Description: as §1, §2, §3

rice (Oryza sativa) = experiment: General postemergence herbicidal activity, ORYSA; conditions: Oryza sativa, post-emergence, 336 h, postemergence spray, visual score after 14 days, 0 = no injury, 100 = complete kill, read-out: Post-emergent Weed Control ORYSA; for plant injury at 280 g/ha: 280 g ai/ha; for plant injury at 140 g/ha: 140 g ai/ha
Description: as §1, §2, §3

[4] = test system: wild poinsettia (Euphorbia heterophylla); experiment: General postemergence herbicidal activity, EPHHL; conditions: Euphorbia heterophylla, post-emergence, 336 h, postemergence spray, visual score after 14 days, 0 = no injury, 100 = complete kill, read-out: Post-emergent Weed Control EPHHL; for pest or weed control at 280 g/ha: 280 g ai/ha; for pest or weed control at 140 g/ha: 140 g ai/ha
Description: as §1, §2, §3

| SMILES | pest or weed control at 280 g/ha [1] | pest or weed control at 280 g/ha [2] | pest or weed control at 280 g/ha [3] | plant injury at 280 g/ha (rice (Oryza sativa)) | pest or weed control at 280 g/ha [4] | further results |
| --- | --- | --- | --- | --- | --- | --- |
| COC(=O)c1nc(-c2ccc(Cl)cc2)c(F)c(N)c1C [Compound 25, 4-Amino-6-(4-chlorophenyl)-5-fluoro-3-methylpyridine-2-carboxylic acid methyl ester] | 0% | 70% | 100% | 0% | 100% | – |
| C=Cc1c(C(=O)OC)nc(-c2ccc(Cl)cc2)c(F)c1N [Compound 26, 4-Amino-6-(4-chlorophenyl)-5-fluoro-3-vinylpyridine-2-carboxylic acid methyl ester] | – | – | – | – | – | pest or weed control at 140 g/ha [1]: 70%; pest or weed control at 140 g/ha [2]: 100%; pest or weed control at 140 g/ha [3]: 100%; plant injury at 140 g/ha (rice (Oryza sativa)): 0%; pest or weed control at 140 g/ha [4]: 90% |
| COC(=O)c1nc(-c2ccc(Cl)c(OC)c2F)cc(N)c1C [Compound 27, 4-Amino-6-(4-chloro-2-fluoro-3-methoxyphenyl)-3-methyl-pyridine-2-carboxylic acid methyl ester] | 0% | 80% | 30% | 0% | 100% | – |
| C=Cc1c(N)cc(-c2ccc(Cl)cc2F)nc1C(=O)OC [Compound 29, 4-Amino-6-(4-chloro-2-fluorophenyl)-3-vinylpyridine-2-carboxylic acid methyl ester] | 0% | 85% | 85% | 10% | 75% | – |
| C=C(F)c1c(C(=O)OC)nc(-c2ccc(Cl)cc2)c(F)c1N [Compound 30, 4-Amino-6-(4-chlorophenyl)-5-fluoro-3-(1-fluorovinyl)pyridine-2-carboxylic acid methyl ester] | – | – | – | – | – | pest or weed control at 140 g/ha [1]: 0%; pest or weed control at 140 g/ha [2]: 100%; pest or weed control at 140 g/ha [3]: 100%; plant injury at 140 g/ha (rice (Oryza sativa)): 0%; pest or weed control at 140 g/ha [4]: 90% |
| C#Cc1c(N)cc(-c2ccc(Cl)c(OC)c2F)nc1C(=O)OC [Compound 31, 4-Amino-6-(4-chloro-2-fluoro-3-methoxyphenyl)-3-ethynyl-pyridine-2-carboxylic acid methyl ester] | – | – | – | – | – | pest or weed control at 140 g/ha [1]: 80%; pest or weed control at 140 g/ha [2]: 95%; pest or weed control at 140 g/ha [3]: 95%; plant injury at 140 g/ha (rice (Oryza sativa)): 0%; pest or weed control at 140 g/ha [4]: 100% |
| COC(=O)c1nc(-c2ccc(Cl)c(OC)c2F)nc(N)c1C(C)=O [Compound 32, 5-Acetyl-6-amino-2-(4-chloro-2-fluoro-3-methoxyphenyl)-pyrimidine-4-carboxylic acid methyl ester] | 0% | 70% | 70% | 0% | 100% | – |
| COC(=O)c1nc(-c2ccc(Cl)c(OC)c2F)nc(N)c1C=O [Compound 33, 6-Amino-2-(4-chloro-2-fluoro-3-methoxyphenyl)-5-formyl-pyrimidine-4-carboxylic acid methyl ester] | – | – | – | – | – | pest or weed control at 229 g/ha ([1]; 229 g ai/ha): 0%; pest or weed control at 229 g/ha ([2]; 229 g ai/ha): 80%; pest or weed control at 229 g/ha ([3]; 229 g ai/ha): 50%; plant injury at 229 g/ha (rice (Oryza sativa); 229 g ai/ha): 0%; pest or weed control at 229 g/ha ([4]; 229 g ai/ha): 100% |
| COC(=O)c1nc(-c2ccc(Cl)c(OC)c2F)cc(N)c1C=O [Compound 34, 4-Amino-6-(4-chloro-2-fluoro-3-methoxyphenyl)-3-formylpyridine-2-carboxylic acid methyl ester] | 95% | 100% | 90% | 0% | 95% | – |
| COC(=O)c1nc(-c2ccc(Cl)c(OC)c2F)nc(N)c1C(F)F [Compound 35, 6-Amino-2-(4-chloro-2-fluoro-3-methoxy-phenyl)-5-difluoromethylpyrimidine-4-carboxylic acid methyl ester] | 0% | 75% | 85% | 0% | 90% | – |
| COC(=O)c1nc(-c2ccc(Cl)c(OC)c2F)cc(N)c1C(F)F [Compound 36, 4-Amino-6-(4-chloro-2-fluoro-3-methoxyphenyl)-3-difluoromethylpyridine-2-carboxylic acid methyl ester] | 95% | 100% | 95% | 0% | 95% | – |
| COC(=O)c1nc(-c2ccc(Cl)c(OC)c2F)nc(N)c1/C=C/Br [Compound 37, 6-Amino-5-((E)-2-bromovinyl)-2-(4-chloro-2-fluoro-3-methoxyphenyl)pyrimidine-4-carboxylic acid methyl ester] | 0% | 80% | 90% | 10% | 90% | – |
| COC(=O)c1nc(-c2ccc(Cl)c(OC)c2F)nc(N)c1/C=C/SC [Compound 38, 6-Amino-2-(4-chloro-2-fluoro-3-methoxyphenyl)-5-((E)-2-methylsulfanylvinyl)pyrimidine-4-carboxylic acid methyl ester] | 60% | 90% | 100% | 0% | 100% | – |
| COC(=O)c1nc(-c2ccc(Cl)c(OC)c2F)nc(N)c1C(C)F (stereo not drawn) [Compound 39, 6-Amino-2-(4-chloro-2-fluoro-3-methoxyphenyl)-5-(1-fluoroethyl)pyrimidine-4-carboxylic acid methyl ester] | – | – | – | – | – | pest or weed control at 140 g/ha [1]: 30%; pest or weed control at 140 g/ha [2]: 80%; pest or weed control at 140 g/ha [3]: 60%; plant injury at 140 g/ha (rice (Oryza sativa)): 0%; pest or weed control at 140 g/ha [4]: 85% |
| C=Cc1c(N)nc(-c2ccc(Cl)c(OC(F)F)c2F)nc1C(=O)O [Compound 50, 6-Amino-2-(4-chloro-3-difluoromethoxy-2-fluorophenyl)-5-vinylpyrimidine-4-carboxylic acid] | 100% | 95% | 100% | 45% | 100% | – |
